From PubChem BioAssay (NCI)
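A five-concentration, 48-hour dose response in 96-well plates underlies each endpoint, interpolated linearly between surrounding concentrations. GI50 is the concentration that inhibits growth by half. TGI marks complete inhibition of growth.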

Columns and labels:
Experiment in all cases: inhibition of tumour cell growth, NCI panel, 48 h
SN12C renal = system: SN12C renal
HOP-92 NSCLC = system: HOP-92 NSCLC
DU-145 prostate = system: DU-145 prostate
SR leukemia = system: SR leukemia
HCT-116 colon = system: HCT-116 colon
UACC-257 melanoma = system: UACC-257 melanoma
OVCAR-4 ovarian = system: OVCAR-4 ovarian
NCI-H460 lung = system: NCI-H460 lung
T-47D breast = system: T-47D breast
MDA-MB-231 breast = system: MDA-MB-231 breast
M14 melanoma = system: M14 melanoma
MDA-MB-435 = system: MDA-MB-435
ACHN renal = system: ACHN renal
LOX IMVI melanoma = system: LOX IMVI melanoma

SMILES	TGI (SN12C renal) [µM]	TGI (HOP-92 NSCLC) [µM]	TGI (DU-145 prostate) [µM]	TGI (SR leukemia) [µM]	TGI (HCT-116 colon) [µM]	TGI (UACC-257 melanoma) [µM]	TGI (OVCAR-4 ovarian) [µM]	TGI (NCI-H460 lung) [µM]	TGI (T-47D breast) [µM]	TGI (MDA-MB-231 breast) [µM]	TGI (M14 melanoma) [µM]	TGI (MDA-MB-435) [µM]	TGI (ACHN renal) [µM]	TGI (LOX IMVI melanoma) [µM]	GI50 (DU-145 prostate) [µM]
CCC/C(Cl)=N\OC(=O)Nc1ccc(Br)cc1	33.8	9.17	27.2	18.4	26.2	27	48.2	34.6	25.2	33.8	25.2	28.7	20.3	10.6	
C=C1[C@H](OCC(C)C)[C@@H](OCC(C)C)[C@@H](O)C(C)(C)/C=C/[C@H](C)C(=O)[C@@]2(O)C[C@H](C)[C@H](O)[C@@H]2[C@H]1OCC(C)C	> 7.5	> 7.5	> 7.5	> 7.5	> 7.5	> 7.5	> 7.5	> 7.5	> 7.5	> 7.5	> 7.5	> 7.5	> 7.5	> 7.5	
C/C(=C\c1csc(C)n1)[C@@H]1C[C@@H]2O[C@]2(C)CCC[C@H](C)[C@H](O)[C@@H](C)C(=O)C(C)(C)[C@@H](O)CC(=O)O1 (tested in a mixture with another compound)	> 1	> 1	0.0682	> 0.239	> 0.183	> 1	> 1	> 1	> 1	> 0.346	> 1	0.00284	> 1	> 1	0.00528
NC(=O)CC1(O)C=CC(=O)C=C1	> 100	> 100	> 100	> 100	> 100	> 100	> 100	> 100	> 100	> 100	> 100	> 100	> 100	> 100	
CC(=O)NNc1nc(C)c(C(/C=C/c2ccccc2O)=N/NC(=O)c2ccncc2)s1	> 100	> 100	> 100	> 100	> 100	> 100	> 100	> 100	> 100	> 100	> 100	> 100	> 100	> 100	
CC(C)CC(=O)OC[n+]1cccc(-c2c(COC(=O)NC(C)C)c(COC(=O)NC(C)C)c3n2CCC3)c1	> 100	76.9	79.7	> 100	> 100	> 100	> 100	> 100	> 100	> 100	> 100	> 100	> 100	> 100	
O=c1c2cc([N+](=O)[O-])cnc2sn1-c1ccc(Oc2ccccc2)cc1	> 100	90.2	> 100	> 100	> 100	> 100	> 100	> 100	56.6	90.7	> 100	> 100	> 100	> 100	
COc1ccc2cc(CNCCCN3CCN(CCCNCc4ccc5cc(OC)ccc5c4)CC3)ccc2c1	3.11	2.82	2.88	0.658	2.56	3.86	3.48	2.87	3.19	3.42	3.01	2.99	3.19	1.48	
